Data from US8722578B2, “Spiroheterocyclic pyrrolidinedione herbicidal compositions” (Syngenta Participations AG, priority 2008, dated 2014).

Tests used:
[1] = system: Alopecurus myosuroides (ALOMY); test: Example A pre-emergence herbicidal activity, glasshouse pot test; assay type: in vivo; conditions: 480 h, rate 250 g/ha, evaluated 20 days after spraying, read-out: ALOMY pre-emergence activity (100=total damage to plant; 0=no damage to plant)
Experimental: (§1) Monocotyledonous and dicotyledonous test plants are sown in standard soil in pots. After cultivation for one day (pre-emergence) or after 10 days cultivation (post-emergence) under controlled conditions in a glasshouse, the plants are sprayed with an aqueous spray solution derived from the formulation of the technical active ingredient in 0.6 ml acetone and 45 ml formulation solution containing 10.6% Emulsogen EL (Registry number 61791-12-6), 42.2% N-methylpyrrolidone, 42.2% dipropylene glycol monomethyl ether (Registry number 34590-94-8) and 0.2% X-77 (Registry number 11097-66-8). The test plants are then grown in a greenhouse under optimum conditions until, 15 days later for post-emergence and 20 days for pre-emergence, the test is evaluated (100=total damage to plant; 0=no damage to plant). Test Plants: Alopecurus myosuroides (ALOMY), Avena fatua (AVEFA), Lolium perenne (LOLPE), Setaria faberi (SETFA), Digitaria sanguinalis (DIGSA), Echinochloa crus-galli (ECHCG) Pre-Emergence Activity

Avena fatua (AVEFA) [2] = test: as above; assay type: in vivo; conditions: 480 h, rate 250 g/ha, evaluated 20 days after spraying, read-out: AVEFA pre-emergence activity (100=total damage to plant; 0=no damage to plant)
Experimental: as §1

[3] = system: Digitaria sanguinalis (DIGSA); test: as above; assay type: in vivo; conditions: 480 h, rate 250 g/ha, evaluated 20 days after spraying, read-out: DIGSA pre-emergence activity (100=total damage to plant; 0=no damage to plant)
Experimental: as §1

[4] = system: Echinochloa crus-galli (ECHCG); test: as above; assay type: in vivo; conditions: 480 h, rate 250 g/ha, evaluated 20 days after spraying, read-out: ECHOG pre-emergence activity (100=total damage to plant; 0=no damage to plant)
Experimental: as §1

Lolium perenne (LOLPE) [5] = test: as above; assay type: in vivo; conditions: 480 h, rate 250 g/ha, evaluated 20 days after spraying, read-out: LOLPE pre-emergence activity (100=total damage to plant; 0=no damage to plant)
Experimental: as §1

Setaria faberi (SETFA) [6] = test: as above; assay type: in vivo; conditions: 480 h, rate 250 g/ha, evaluated 20 days after spraying, read-out: SETFA pre-emergence activity (100=total damage to plant; 0=no damage to plant)
Experimental: as §1

[7] = system: Alopecurus myosuroides (ALOMY); test: Example A post-emergence herbicidal activity, glasshouse pot test; assay type: in vivo; conditions: 360 h, rate 125 g/ha, evaluated 15 days after spraying, read-out: ALOMY post-emergence activity (100=total damage to plant; 0=no damage to plant)
Experimental: as §1, with “Post-Emergence” for “Pre-Emergence”

Avena fatua (AVEFA) [8] = test: as above; assay type: in vivo; conditions: 360 h, rate 125 g/ha, evaluated 15 days after spraying, read-out: AVEFA post-emergence activity (100=total damage to plant; 0=no damage to plant)
Experimental: as §1, with “Post-Emergence” for “Pre-Emergence”

[9] = system: Digitaria sanguinalis (DIGSA); test: as above; assay type: in vivo; conditions: 360 h, rate 125 g/ha, evaluated 15 days after spraying, read-out: DIGSA post-emergence activity (100=total damage to plant; 0=no damage to plant)
Experimental: as §1, with “Post-Emergence” for “Pre-Emergence”

[10] = system: Echinochloa crus-galli (ECHCG); test: as above; assay type: in vivo; conditions: 360 h, rate 125 g/ha, evaluated 15 days after spraying, read-out: ECHOG post-emergence activity (100=total damage to plant; 0=no damage to plant)
Experimental: as §1, with “Post-Emergence” for “Pre-Emergence”

Lolium perenne (LOLPE) [11] = test: as above; assay type: in vivo; conditions: 360 h, rate 125 g/ha, evaluated 15 days after spraying, read-out: LOLPE post-emergence activity (100=total damage to plant; 0=no damage to plant)
Experimental: as §1, with “Post-Emergence” for “Pre-Emergence”

Setaria faberi (SETFA) [12] = test: as above; assay type: in vivo; conditions: 360 h, rate 125 g/ha, evaluated 15 days after spraying, read-out: SETFA post-emergence activity (100=total damage to plant; 0=no damage to plant)
Experimental: as §1, with “Post-Emergence” for “Pre-Emergence”

[13] = system: Alopecurus myosuroides (ALOMY); test: Example B pre-emergence herbicidal activity, glasshouse pot test; assay type: in vivo; conditions: 312 h, first table (headed Post-Emergence, taken as pre-emergence), evaluated after 13 days, read-out: ALOMY activity (100=total damage to plant; 0=no damage to plant); for pest or weed control at 1000 g/ha: rate 1000 g/ha
Experimental: (§2) Seeds of a variety of test species are sown in standard soil in pots. After cultivation for one day (pre-emergence) or after 8 days cultivation (post-emergence) under controlled conditions in a glasshouse (at 24/16° C., day/night; 14 hours light; 65% humidity), the plants are sprayed with an aqueous spray solution derived from the formulation of the technical active ingredient in acetone/water (50:50) solution containing 0.5% Tween 20 (polyoxyethelyene sorbitan monolaurate, CAS RN 9005-64-5). The test plants are then grown in a glasshouse under controlled conditions in a glasshouse (at 24/16° C., day/night; 14 hours light; 65% humidity) and watered twice daily. After 13 days for pre and post-emergence, the test is evaluated (100=total damage to plant; 0=no damage to plant). Test Plants: Setaria faberi (SETFA), Alopecurus myosuroides (ALOMY), Echinochloa crus-galli (ECHCG), Avena fatua (AVEFA)

Avena fatua (AVEFA) [14] = test: as above; assay type: in vivo; conditions: 312 h, first table (headed Post-Emergence, taken as pre-emergence), evaluated after 13 days, read-out: AVEFA activity (100=total damage to plant; 0=no damage to plant); for pest or weed control at 1000 g/ha: rate 1000 g/ha
Experimental: as §2

[15] = system: Echinochloa crus-galli (ECHCG); test: as above; assay type: in vivo; conditions: 312 h, first table (headed Post-Emergence, taken as pre-emergence), evaluated after 13 days, read-out: ECHCG activity (100=total damage to plant; 0=no damage to plant); for pest or weed control at 1000 g/ha: rate 1000 g/ha
Experimental: as §2

Setaria faberi (SETFA) [16] = test: as above; assay type: in vivo; conditions: 312 h, first table (headed Post-Emergence, taken as pre-emergence), evaluated after 13 days, read-out: SETFA activity (100=total damage to plant; 0=no damage to plant); for pest or weed control at 1000 g/ha: rate 1000 g/ha
Experimental: as §2

[17] = system: Alopecurus myosuroides (ALOMY); test: Example B post-emergence herbicidal activity, glasshouse pot test; assay type: in vivo; conditions: 312 h, evaluated after 13 days, read-out: ALOMY post-emergence activity (100=total damage to plant; 0=no damage to plant); for pest or weed control at 1000 g/ha: rate 1000 g/ha
Experimental: as §2

Avena fatua (AVEFA) [18] = test: as above; assay type: in vivo; conditions: 312 h, evaluated after 13 days, read-out: AVEFA post-emergence activity (100=total damage to plant; 0=no damage to plant); for pest or weed control at 1000 g/ha: rate 1000 g/ha
Experimental: as §2

[19] = system: Echinochloa crus-galli (ECHCG); test: as above; assay type: in vivo; conditions: 312 h, evaluated after 13 days, read-out: ECHCG post-emergence activity (100=total damage to plant; 0=no damage to plant); for pest or weed control at 1000 g/ha: rate 1000 g/ha
Experimental: as §2

Setaria faberi (SETFA) [20] = test: as above; assay type: in vivo; conditions: 312 h, evaluated after 13 days, read-out: SETFA post-emergence activity (100=total damage to plant; 0=no damage to plant); for pest or weed control at 1000 g/ha: rate 1000 g/ha
Experimental: as §2

Row | melting point [°C] | SMILES | pest or weed control at 250 g/ha [1] [%] | pest or weed control at 250 g/ha (Avena fatua (AVEFA) [2]) [%] | pest or weed control at 250 g/ha [3] [%] | pest or weed control at 250 g/ha [4] [%] | pest or weed control at 250 g/ha (Lolium perenne (LOLPE) [5]) [%] | pest or weed control at 250 g/ha (Setaria faberi (SETFA) [6]) [%] | pest or weed control at 125 g/ha [7] [%] | pest or weed control at 125 g/ha (Avena fatua (AVEFA) [8]) [%] | pest or weed control at 125 g/ha [9] [%] | pest or weed control at 125 g/ha [10] [%] | pest or weed control at 125 g/ha (Lolium perenne (LOLPE) [11]) [%] | pest or weed control at 125 g/ha (Setaria faberi (SETFA) [12]) [%] | pest or weed control at 1000 g/ha [13] [%] | pest or weed control at 1000 g/ha (Avena fatua (AVEFA) [14]) [%] | pest or weed control at 1000 g/ha [15] [%] | pest or weed control at 1000 g/ha (Setaria faberi (SETFA) [16]) [%] | pest or weed control at 1000 g/ha [17] [%] | pest or weed control at 1000 g/ha (Avena fatua (AVEFA) [18]) [%] | pest or weed control at 1000 g/ha [19] [%] | also measured
1 | 187 to 189 | CCOC(=O)OC1=C(c2ccc(Cl)cc2Cl)C(=O)NC12CCN(OC)CC2 [Compound P16] | 30 | 30 | 0 | 20 | 50 | 10 | 70 | 30 | 50 | 50 | 20 | 50 | 70 | 50 | 40 | 90 | 100 | 80 | 100 | pest or weed control at 1000 g/ha (Setaria faberi (SETFA) [20]): 100%
2 | 209 to 211 | CCOC(=O)OC1=C(c2cc(-c3ccc(Cl)cc3)ccc2C)C(=O)NC12CCN(OC)CC2 [Compound P29] | 20 | 50 | 20 | 60 | 10 | 0 | 90 | 90 | 100 | 100 | 80 | 90 | 70 | 90 | 100 | 100 | 100 | 100 | 100 | pest or weed control at 1000 g/ha (Setaria faberi (SETFA) [20]): 100%
3 | 174 to 176 | C=CCOC(=O)OC1=C(c2c(C)cc(C)cc2C)C(=O)NC12CCN(OC)CC2 [Compound P43] | 80 | 70 | 90 | 80 | 70 | 80 | 60 | 40 | 70 | 60 | 70 | 50 | 100 | 90 | 100 | 100 | 90 | 90 | 90 | pest or weed control at 1000 g/ha (Setaria faberi (SETFA) [20]): 90%
4 | 211 to 213 | CCOC(=O)OC1=C(c2cc(-c3ccc(Cl)cc3)c(C)cc2C)C(=O)NC12CCN(OC)CC2 [Compound P53] | 0 | 30 | 60 | 50 | 20 | 40 | 20 | 0 | 60 | 60 | 0 | 50 | – | – | – | – | – | – | – | pest or weed control at 250 g/ha ([13]; rate 250 g/ha): 0%; pest or weed control at 250 g/ha (Avena fatua (AVEFA) [14]; rate 250 g/ha): 0%; pest or weed control at 250 g/ha ([15]; rate 250 g/ha): 0%; pest or weed control at 250 g/ha (Setaria faberi (SETFA) [16]; rate 250 g/ha): 80%; pest or weed control at 250 g/ha ([17]; rate 250 g/ha): 70%; pest or weed control at 250 g/ha (Avena fatua (AVEFA) [18]; rate 250 g/ha): 30%; pest or weed control at 250 g/ha ([19]; rate 250 g/ha): 90%; pest or weed control at 250 g/ha (Setaria faberi (SETFA) [20]; rate 250 g/ha): 90%
